According to patent US8278294B2, “Substituted isoquinoline and isoquinolinone derivatives as inhibitors of Rho-kinase” (Sanofi, priority 2006, dated 2012):

Each molecule was assayed against T1, human recombinant ROCK II (Homo sapiens, UniProt O75116) (assay: Determination of Rho kinase inhibition (Caliper peptide phosphorylation assay)). Settings: negative decadal logarithm of the IC50; ROCK II residues 11-552, fluorescein peptide substrate, ATP, 60 min at 32° C.; salt or free base as obtained in the examples.
T1 construct: recombinant human ROCK-II residues 11-552; His6 (N); purchased Upstate Ltd., Dundee, UK
Format: biochemical
Method: Determination of Rho Kinase Inhibition
To measure Rho-kinase inhibition, IC50 values were determined according to the following protocol:
Active human recombinant ROCK II (N-terminal His6-tagged recombinant human ROCK-II residues 11-552) was purchased from Upstate Ltd., Dundee, UK. The peptide substrate, Fluorescein-AKRRRLSSLRA-COOH, was obtained from JPT Peptide Technologies, Berlin, Germany. Adenosine-5′-triphosphate (ATP), bovine serum albumine (BSA), dimethylsulphoxide (DMSO), 4-(2-Hydroxyethyl)piperazine-1-ethanesulfonic acid (Hepes), Brij-35 and dithiothreitol (DTT) were purchased from Sigma-Aldrich, Munich, Germany. Tris(hydroxymethyl)-aminomethane (Tris), magnesium chloride, NaOH, 1M HCl and EDTA were obtained from Merck Biosciences, Darmstadt, Germany. “Complete” protease inhibitor was from Roche Diagnostics, Mannheim, Germany.
Test compounds were diluted to the appropriate concentrations in buffer 1 (25 mM Tris-HCl, pH 7.4, 5 mM MgCl2, 2 mM DTT, 0.02% (w/v) BSA and 3% DMSO). The ROCK II enzyme was diluted to a concentration of 100 ng/ml in buffer 2 (25 mM Tris-HCl, pH 7.4, 5 mM MgCl2, 2 mM DTT and 0.02% (w/v) BSA). The peptide substrate and ATP were diluted to concentrations of 3 μM and 120 μM, respectively, in the buffer 2. Two μl of the compound solution were mixed with 2 μl of the diluted enzyme in a 384-well small volume microtiter plate (Greiner, Bio-One, Frickenhausen, Germany), and the kinase reaction was initiated by addition of 2 μl of the solution containing peptide substrate and ATP. After 60 min incubation at 32° C., the reaction was stopped by addition of 20 μl of a solution containing 100 mM Hepes-NaOH, pH 7.4, 0.015% (v/v) Brij-35, 45 mM EDTA and 0.227% chip coating reagent 1 (Caliper Lifescience Inc, Hopkinton, Mass.). Phosphorylation of the substrate peptide was then detected on a Caliper 3000 instrument essentially as described by Pommereau et al (J. Biomol. Screening 9(5), 409-416, 2004). Separation conditions were as follows: Pressure −1.3 psi, upstream voltage −1562 V, downstream voltage −500 V, sample sip time 200 ms. Positive controls (buffer 1 instead of compound) and negative controls (buffer 1 instead of compound and buffer 2 instead of ROCK II) were run in parallel on each plate.
The following products/compounds were tested in said assay by using the respective form (salt or free base) obtained as in the examples described above and the following activities were measured.

T1 sequence (O75116 11-552): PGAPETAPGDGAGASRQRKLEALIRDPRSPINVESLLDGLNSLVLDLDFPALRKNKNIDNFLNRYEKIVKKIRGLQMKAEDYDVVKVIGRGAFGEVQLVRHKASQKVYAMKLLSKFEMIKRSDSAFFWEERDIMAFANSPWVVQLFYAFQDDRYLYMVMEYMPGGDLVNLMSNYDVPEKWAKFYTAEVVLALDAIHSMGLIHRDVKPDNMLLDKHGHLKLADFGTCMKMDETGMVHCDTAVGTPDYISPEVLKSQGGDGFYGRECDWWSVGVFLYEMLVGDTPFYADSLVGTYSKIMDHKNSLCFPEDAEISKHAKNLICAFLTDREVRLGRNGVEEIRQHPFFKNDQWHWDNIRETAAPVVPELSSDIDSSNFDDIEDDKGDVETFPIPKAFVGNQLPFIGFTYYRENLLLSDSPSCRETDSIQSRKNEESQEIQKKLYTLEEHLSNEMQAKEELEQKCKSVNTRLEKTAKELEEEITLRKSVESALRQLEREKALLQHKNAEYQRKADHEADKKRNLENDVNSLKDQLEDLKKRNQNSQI

Row | SMILES | IC50 [µM]
1 | C[C@@H](N)C(=O)N1CCC(Oc2cc3cc[nH]c(=O)c3cc2Cl)CC1 [Example 11, 6-[1-(2-Amino-propionyl)-piperidin-4-yloxy]-7-chloro-2H-isoquinolin-1-one] | ≤ 1
2 | O=C([C@@H]1CCCN1)N1CCC(Oc2cc3cc[nH]c(=O)c3cc2Cl)CC1 [Example 15, 7-Chloro-6-[1-((S)-pyrrolidine-2-carbonyl)-piperidin-4-yloxy]-2H-isoquinolin-1-one] | ≤ 1
3 | CN(C)CC(=O)N1CCC(Oc2cc3cc[nH]c(=O)c3cc2Cl)CC1 [Example 16, 7-Chloro-6-[1-(2-dimethylamino-acetyl)-piperidin-4-yloxy]-2H-isoquinolin-1-one] | ≤ 1
4 | NC1(C(=O)N2CCC(Oc3cc4cc[nH]c(=O)c4cc3Cl)CC2)CC1 [Example 19, 6-[1-(1-Amino-cyclopropanecarbonyl)-piperidin-4-yloxy]-7-chloro-2H-isoquinolin-1-one] | 1 to 10
5 | N[C@@H](Cc1ccc(Cl)cc1)C(=O)N1CCC(Oc2cc3cc[nH]c(=O)c3cc2Cl)CC1 [Example 22, 6-{1-[(S)-2-Amino-3-(4-chloro-phenyl)-propionyl]-piperidin-4-yloxy}-7-chloro-2H-isoquinolin-1-one] | ≤ 1
6 | NCC(=O)N1CCC(Oc2ccc3c(=O)[nH]ccc3c2)CC1 [Example 24, 6-[1-(2-Amino-acetyl)-piperidin-4-yloxy]-2H-isoquinolin-1-one] | ≤ 1
7 | CCCNC(=O)CN1CCC(Oc2cc3cc[nH]c(=O)c3cc2Cl)CC1 [Example 46, 2-[4-(7-Chloro-1-oxo-1,2-dihydro-isoquinolin-6-yloxy)-piperidin-1-yl]-N-propyl-acetamide] | ≤ 1
8 | O=c1[nH]ccc2cc(OC3CCCNCC3)c(Cl)cc12 (stereo not drawn) [Example 55, 6-(Azepan-4-yloxy)-7-chloro-2H-isoquinolin-1-one] | ≤ 1
9 | O=c1[nH]ccc2cc(OC3CNC3)c(Cl)cc12 [Example 58, 6-(Azetidin-3-yloxy)-7-chloro-2H-isoquinolin-1-one] | ≤ 1
10 | O=c1[nH]ccc2cc(O[C@@H]3CCN(Cc4ccccc4)C3)c(Cl)cc12 [Example 66, 6-((R)-1-Benzyl-pyrrolidin-3-yloxy)-7-chloro-2H-isoquinolin-1-one] | ≤ 1
11 | O=c1[nH]ccc2cc(O[C@H]3CCN(Cc4ccccc4)C3)c(Cl)cc12 [Example 67, 6-((S)-1-Benzyl-pyrrolidin-3-yloxy)-7-chloro-2H-isoquinolin-1-one] | 1 to 10
12 | Cc1cc2c(=O)[nH]ccc2cc1OC1CCCNCC1 (stereo not drawn) [Example 68, 6-(Azepan-4-yloxy)-7-methyl-2H-isoquinolin-1-one] | ≤ 1
13 | Cc1cc2c(=O)[nH]ccc2cc1OC[C@@H]1CCNC1 [Example 69, 7-Methyl-6-((R)-1-pyrrolidin-3-ylmethoxy)-2H-isoquinolin-1-one] | ≤ 1
14 | Cc1cc2c(=O)[nH]ccc2cc1O[C@H]1CCNC1 [Example 70, 7-Methyl-6-((S)-pyrrolidin-3-yloxy)-2H-isoquinolin-1-one] | ≤ 1
15 | Cc1c[nH]c(=O)c2ccc(OC3CCN(C[C@@H](N)CO)CC3)c(F)c12 [Example 75, 6-[1-((R)-2-Amino-3-hydroxy-propyl)-piperidin-4-yloxy]-5-fluoro-4-methyl-2H-isoquinolin-1-one] | 1 to 10
